Measurements taken from patent publication US10870638B2, “Pyridazinone compound or its salt, and herbicide containing it” (ISHIHARA SANGYO KAISHA, LTD., priority 2016, dated 2020).

Columns and labels:
Type in all cases: in vivo
Conditions in all cases: active ingredient amount 31 g/ha, 14th day after application
[1] = system: crabgrass (Digitaria sanquinalis L.); experiment: Test Example 1: foliar treatment, growth inhibition rate on 14th day
Method in brief: (§1)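 Visual 0–100% inhibition scoring (100 = complete kill) at 14 days after foliar treatment of soil-grown seedlings at species-specific leaf stages, with the compound sprayed as a wettable powder or emulsifiable concentrate dilution.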

[2] = system: green foxtail (Setaria viridis L.); experiment: as above
Method in brief: (§2)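 Growth inhibition rates (%) come from visual observation on the 14th day following a single foliar application. Soybean was sprayed at the primary leaf stage, rice at 0.2–2.7 leaves, wild oat at 0.4–1.2, green foxtail at 0.5–3.2.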

corn (Zea mays L.) [3] = experiment: as above
Method in brief: as §1

[4] = system: italian ryegrass (Lolium multiflorum Lam.); experiment: as above
Method in brief: as §1

[5] = system: wheat (Triticum aestivum L.); experiment: as above
Method in brief: as §1

[6] = system: redroot pigweed (Amaranthus retroflexus L.); experiment: as above
Method in brief: as §1

rice (Oryza sativa L.) [7] = experiment: as above
Method in brief: as §2

[8] = system: barnyardgrass (Echinochloa crus-qalli L.); experiment: as above
Method in brief: as §1

[9] = system: wild oat (Avena fatua L.); experiment: as above
Method in brief: as §2

[10] = system: soybean (Glycine max Merr.); experiment: as above
Method in brief: as §2

[11] = system: prickly sida (Sida spinosa L.); experiment: Test Example 2: soil application on the day after sowing, growth inhibition rate on 14th day
Method in brief: (§3)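 Pre-emergence soil spray, day after sowing; WP or EC formulations diluted to 1,000 L/ha water at set a.i. rates. Visual growth inhibition %, 0 = untreated, 100 = complete kill, read at day 14.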

[12] = system: green foxtail (Setaria viridis L.); experiment: as above
Method in brief: as §3

corn (Zea mays L.) [13] = experiment: as above
Method in brief: as §3

[14] = system: crabgrass (Digitaris sanquinalis L.); experiment: as above
Method in brief: as §3

[15] = system: velvetleaf (Abutilon theophrasti MEDIC.); experiment: as above
Method in brief: as §3

[16] = system: wheat (Triticum aestivum L.); experiment: as above
Method in brief: as §3

[17] = system: redroot pigweed (Amaranthus retroflexus L.); experiment: as above
Method in brief: as §3

rice (Oryza sativa L.) [18] = experiment: as above
Method in brief: as §3

[19] = system: barnyardgrass (Echinochloa crus-qalli L.); experiment: as above
Method in brief: as §3

[20] = system: soybean (Glycine max Merr.); experiment: as above
Method in brief: as §3

[21] = visual, 0 = non-treated, 100 = complete kill

Row | Compound | Growth inhibition rate (%) Prickly sida [11] [%] | Growth inhibition rate (%) Green foxtail [12] [%] | Growth inhibition rate (%) Corn (corn (Zea mays L.) [13]) [%] | Growth inhibition rate (%) Crabgrass [14] [%] | Growth inhibition rate (%) Velvetleaf [15] [%] | Growth inhibition rate (%) Wheat [16] [%] | Growth inhibition rate (%) Redroot pigweed [17] [%] | Growth inhibition rate (%) Rice (rice (Oryza sativa L.) [18]) [%] | Growth inhibition rate (%) Barnyardgrass [19] [%] | Growth inhibition rate (%) Soybean [20] [%] | Growth inhibition rate (%) Crabgrass [1] [%] | Growth inhibition rate (%) Green foxtail [2] [%] | Growth inhibition rate (%) Corn (corn (Zea mays L.) [3]) [%] | Growth inhibition rate (%) Italian ryegrass [4] [%] | Growth inhibition rate (%) Wheat [5] [%] | Growth inhibition rate (%) Redroot pigweed [6] [%] | Growth inhibition rate (%) Rice (rice (Oryza sativa L.) [7]) [%] | Growth inhibition rate (%) Barnyardgrass [8] [%] | Growth inhibition rate (%) Wild oat [9] [%] | Growth inhibition rate (%) Soybean [10] [%] | further results
1 | COCC(=O)Oc1c(C)nn(C)c(=O)c1-c1cc(Oc2cnc3cc(Cl)ccc3n2)ccc1C [Compound 3-45] | 0 | 85 | 0 | 20 | 0 | 0 | 0 | 25 | 95 | 0 | – | – | – | – | – | – | – | – | – | – | Growth inhibition rate (%) Crabgrass [1, 21]: 99%; Growth inhibition rate (%) Green foxtail [2, 21]: 99%; Growth inhibition rate (%) Corn (corn (Zea mays L.) [3]; [21]): 45%; Growth inhibition rate (%) Italian ryegrass [4, 21]: 100%; Growth inhibition rate (%) Wheat [5, 21]: 98%; Growth inhibition rate (%) Redroot pigweed [6, 21]: 0%; Growth inhibition rate (%) Rice (rice (Oryza sativa L.) [7]; [21]): 98%; Growth inhibition rate (%) Barnyardgrass [8, 21]: 100%; Growth inhibition rate (%) Wild oat [9, 21]: 100%; Growth inhibition rate (%) Soybean [10, 21]: 25%
2 | COCOc1c(C)nn(C)c(=O)c1-c1cc(Oc2ncc(C(F)(F)F)cc2Cl)ccc1C [1-132] | 0 | 98 | 10 | 93 | 0 | 0 | 0 | 0 | 99 | 0 | 100 | 100 | 99 | 98 | 98 | 0 | 88 | 100 | 98 | 20 | –
3 | CCn1nc(C)c(OC(C)=O)c(-c2cc(Oc3cnc4cc(Cl)ccc4n3)ccc2C)c1=O [Compound 3-97] | 0 | 99 | 0 | 93 | 0 | 20 | 0 | 20 | 95 | 0 | – | – | – | – | – | – | – | – | – | – | Growth inhibition rate (%) Crabgrass [1, 21]: 100%; Growth inhibition rate (%) Green foxtail [2, 21]: 100%; Growth inhibition rate (%) Corn (corn (Zea mays L.) [3]; [21]): 15%; Growth inhibition rate (%) Italian ryegrass [4, 21]: 99%; Growth inhibition rate (%) Wheat [5, 21]: 95%; Growth inhibition rate (%) Redroot pigweed [6, 21]: 0%; Growth inhibition rate (%) Rice (rice (Oryza sativa L.) [7]; [21]): 75%; Growth inhibition rate (%) Barnyardgrass [8, 21]: 100%; Growth inhibition rate (%) Wild oat [9, 21]: 100%; Growth inhibition rate (%) Soybean [10, 21]: 0%
4 | Cc1ccc(Oc2nc3ccc(Cl)cc3o2)cc1-c1c(O)c(C)nn(C)c1=O [Compound 2-8] | 0 | 100 | 0 | 95 | 0 | 0 | 0 | 20 | 100 | 0 | 100 | 99 | 10 | 83 | 25 | 0 | 15 | 100 | 65 | 0 | –
5 | CCc1ccc(Oc2ncc(C(F)(F)F)cc2Cl)cc1-c1c(OC(C)=O)cnn(CC)c1=O [1-174] | 0 | 100 | 0 | 100 | 0 | 0 | 0 | 0 | 100 | 0 | 100 | 100 | 100 | 93 | 75 | 0 | 20 | 100 | 100 | 0 | –
6 | Cc1c(Oc2ncc(C(F)(F)F)cc2Cl)cccc1-c1c(O)cnn(CC2CC2)c1=O [1-166] | 0 | 80 | 0 | 95 | 0 | 0 | 0 | 0 | 80 | 0 | 99 | 100 | 98 | 30 | 10 | 0 | 10 | 95 | 93 | 15 | –
7 | Cc1ccc(Oc2ncc(C(F)(F)F)cc2Br)cc1-c1c(O)c(C)nn(C)c1=O [Compound 2-83] | 75 | 100 | 0 | 100 | 0 | 0 | 100 | 30 | 99 | 0 | 98 | 99 | 60 | 80 | 10 | 0 | 0 | 99 | 88 | 0 | –
8 | C#CCOC(=O)Oc1c(C)nn(C)c(=O)c1-c1cc(Oc2cnc3cc(Cl)ccc3n2)ccc1C [Compound 3-64] | 0 | 93 | 0 | 50 | 0 | 0 | 0 | 0 | 98 | 0 | – | – | – | – | – | – | – | – | – | – | Growth inhibition rate (%) Crabgrass [1, 21]: 90%; Growth inhibition rate (%) Green foxtail [2, 21]: 100%; Growth inhibition rate (%) Corn (corn (Zea mays L.) [3]; [21]): 50%; Growth inhibition rate (%) Italian ryegrass [4, 21]: 85%; Growth inhibition rate (%) Wheat [5, 21]: 60%; Growth inhibition rate (%) Redroot pigweed [6, 21]: 0%; Growth inhibition rate (%) Rice (rice (Oryza sativa L.) [7]; [21]): 0%; Growth inhibition rate (%) Barnyardgrass [8, 21]: 98%; Growth inhibition rate (%) Wild oat [9, 21]: 83%; Growth inhibition rate (%) Soybean [10, 21]: 0%
9 | Cc1ccc(Oc2ncc(C(F)(F)F)cc2F)cc1-c1c(O)c(C)nn(C)c1=O [Compound 2-5] | 0 | 100 | 65 | 100 | 0 | 30 | 0 | 80 | 100 | 0 | 99 | 100 | 75 | 95 | 40 | 20 | 85 | 100 | 95 | 0 | –
